Each structure is given as a SMILES string. pIC50: −log10 of the molar value. Where a name gives a salt, the structure may show the parent alone.

The subject of one test is platelet aggregation in human platelet rich plasma (PRP). Kind of test: Platelet Aggregation Assay (platelet rich plasma, with or without esterase pretreatment). The format is cell-based. The following applies: Platelet, preincubated with 100 IU/mL porcine liver esterase 2 hours at 37° C., 100 μM ADP, read-out: Platelet Aggregation Assay IC50 (with esterase). The method, then: Venous blood was obtained from the arm of a healthy human donor who was drug-free and aspirin-free for at least two weeks prior to blood collection. Blood was collected into 10 mL citrated Vacutainer tubes. The blood was centrifuged for 15 minutes at 150×g at room temperature, and platelet-rich plasma (PRP) was removed. The remaining blood was centrifuged for 15 minutes at 1500×g at room temperature, and platelet-poor plasma (PPP) was removed. Samples were assayed on a aggregometer (PAP-4 Platelet Aggregation Profiler), using PPP as the blank (100% transmittance). 200 μL of PRP was added to each micro test tube, and transmittance was set to 0%. 20 μL of various agonists (ADP, collagen, arachidonate, epinephrine, thrombin) were added to each tube, and the aggregation profiles were plotted (% transmittance versus time). The results are expressed as % inhibition of agonist-induced platelet aggregation. For the IC50 evaluation, the test compounds were added at various concentrations prior to the activation of the platelets.
Ester prodrugs were preincubated (10^-3 M F.C.) with 100 IU/mL Porcine liver esterase (Sigma Chemical Co., St. Louis, Mo., #E-3128) for 2 hours at 37° C. Aliquots are then diluted in 0.1M Tris, pH 7.4, to the desired concentrations. Aliquots of 20 μl of the esterase pretreated prodrugs are added to 200 μl of human platelet rich plasma. Samples were placed in platelet profiler (aggregometer) for 8 minutes at 37° C., followed by the addition of 100 μM Adenosine Diphosphate, (Sigma Chemical Co., St. Louis, Mo., #A-6521), to induce platelet aggregation. Platelet aggregation was allowed to proceed for 5 minutes. Percent inhibition is calculated using percent aggregation in the presence of the test compound divided by percent aggregation of control, times 100. This value is subtracted from 100, yielding percent inhibition. Calculation of IC50 is performed on a Texas Instruments TI59 with an IC50 program.
Table A below sets forth the antiplatelet activity of representative compounds of the present invention. The indicated compounds were tested for their ability to inhibit platelet aggregation (using platelet rich plasma (PRP)). The IC50 value (the concentration of antagonist which inhibits platelet aggregation by 50% relative to a control lacking the antagonist) is shown. In Table 5 the IC50 values are expressed as: +++=IC50 of <10 μM; ++=IC50 of 10-50 μM; +=IC50 of 50-100 μM (μM=micromolar).
For `COC(=O)C(CNC(=O)CC1CC(c2ccc(C(=N)N)cc2)=NO1)NC(=O)OCc1ccccc1` (stereo not shown) [Example 312], the pIC50 is over 5.00.
The same measure, in the same setting: next, `CCOC(=O)CC(CN(C)C)NC(=O)CC1CC(c2ccc(C(=N)N)cc2)=NO1` (stereo not shown) [Example 166]: over 5.00; `COc1ccccc1CNC(=N)c1ccc(C2=NOC(CC(=O)NCC(NS(=O)(=O)c3ccccc3C)C(=O)O)C2)cc1` (stereo not shown) [Example 2112]: over 5.00; `COC(=O)C(CNC(=O)CC1CC(c2ccc(C(=N)N)cc2)=NO1)NS(=O)(=O)c1cccs1` (stereo not shown) [Example 472]: over 5.00.
Still for that read-out and setting: the figure for `COC(=O)C(CNC(=O)CC1CC(c2ccc(C(=N)N)cc2)=NO1)NS(=O)(=O)c1ccccc1C(F)(F)F` (stereo not shown) [Example 480] is over 5.00; for `CCOC(=O)C[C@@H](CC(C)C)NC(=O)CC1CC(c2ccc(C(=N)N)cc2)=NO1` (stereo partly drawn) [Example 348, Ethyl 3(R)-{5(R,S)-N-[3-(4-amidinophenyl)isoxazolin-5-ylacetyl]amino}-5-methylhexanoate . trifluoroacetic acid salt] it is over 5.00.
`COC(=O)CC(CN1CCCC1)NC(=O)CC1CC(c2ccc(C(=N)N)cc2)=NO1` (stereo not shown) [Example 612]: the pIC50 was over 5.00.
The same measure, in the same setting: next, `COC(=O)C(CNC(=O)CC1CC(c2ccc(C(=N)N)cc2)=NO1)NS(=O)(=O)c1ccc(C(F)(F)F)cc1` (stereo not shown) [Example 481]: over 5.00; `COC(=O)C(CNC(=O)CC1CC(c2ccc(C(=N)N)cc2)=NO1)NS(=O)(=O)c1c(C)cc(C)cc1C` (stereo not shown) [Example 478]: over 5.00; `COC(=O)C(CNC(=O)CC1CC(c2ccc(C(=N)N)cc2)=NO1)NC(=O)OCC(C)C` (stereo not shown) [Example 531]: over 5.00.
Still for that read-out and setting: the figure for `CCCCOC(=O)NC(CNC(=O)Cc1cc(-c2ccc(C(=N)N)cc2)no1)C(=O)OC` (stereo not shown) [Example 729] is over 5.00.
The same measure, in the same setting: next, `COC(=O)C(CNC(=O)CC1CC(c2ccc(C(=N)N)cc2)=NO1)NS(=O)(=O)CCc1ccccc1` (stereo not shown) [Example 491]: over 5.00; `N=C(N)c1ccc(C2=NOC(CC(=O)NC[C@H](NC(=O)OCc3ccccc3)C(=O)O)C2)cc1` (stereo partly drawn) [Example 276, N^2 -Cbz-N^3-[3-(4-amidinophenyl)isoxazolin-5(R, S) -ylacetyl]-L-2,3-diaminopropionic acid TFA salt]: over 5.00.
In the case of `COC(=O)C(CNC(=O)CC1CC(c2ccc(C(=N)N)cc2)=NO1)NC(=O)OCCC1CCCC1` (stereo not shown) [Example 535], the pIC50 was over 5.00.
Same read-out and setting: the figure for `N=C(N)NCCCCCC1=NOC(C(=O)NCC(NC(=O)OCc2ccccc2)C(=O)O)C1` (stereo not shown) [Example 2402] is over 5.00; for `COC(=O)C(CNC(=O)CC1CC(c2ccc(C(=N)N)cc2)=NO1)NS(=O)(=O)c1cccc(Cl)c1Cl` (stereo not shown) [Example 542] it is over 5.00; for `CCCCOc1ccc(S(=O)(=O)NC(CNC(=O)CC2CC(c3ccc(C(=N)N)cc3)=NO2)C(=O)OC)cc1` (stereo not shown) [Example 471] it is over 5.00.
On the same count and under the same terms, next, `COC(=O)C(CNC(=O)CC1CC(c2ccc(C(=N)N)cc2)=NO1)NS(=O)(=O)CCCc1ccccc1` (stereo not shown) [Example 493]: over 5.00.
On the same count and under the same terms, next, `CCCCOC(=O)N[C@@H](CNC(=O)CC1CC(c2ccc(NC(=N)N)cc2)=NO1)C(=O)OC` (stereo partly drawn) [Example 602, Methyl N^2-n-butyloxycarbonyl-N^3-[3-(4-guanidinophenyl)isoxazolin-5-(R,S)-ylacetyl]-(S)-2,3-diaminopropionate, trifluoroacetic acid salt]: over 5.00; `COC(=O)C(CNC(=O)CC1CC(c2ccc(C(=N)N)cc2)=NO1)NS(=O)(=O)NCc1ccccc1` (stereo not shown) [Example 510]: over 5.00.
`COC(=O)C(CNC(=O)CC1CC(c2ccc(C(=N)N)cc2)=NO1)NS(=O)(=O)NCC(C)C` (stereo not shown) [Example 505]: the pIC50 is over 5.00.
The same measure, in the same setting: the figure for `N=C(N)NCC1CC(CCC(=O)NCC(NC(=O)OCc2ccccc2)C(=O)O)=NO1` (stereo not shown) [Example 2281] is over 5.00.
Still for that read-out and setting: the figure for `COC(=O)CC(NC(=O)CC1CC(c2ccc(C(=N)N)cc2)=NO1)C(=O)N1CCSC1` (stereo not shown) [Example 469] is over 5.00; for `CCOC(=O)CC1CCCCN1C(=O)CC1CC(c2ccc(C(=N)N)cc2)=NO1` (stereo not shown) [Example 413] it is over 5.00.
As for `N=C(N)NCCCCCC1=NOC(CC(=O)NCC(NC(=O)OCc2ccccc2)C(=O)O)C1` (stereo not shown) [Example 2110], the negative-log IC50 (pIC50) is over 5.00.
On the same count and under the same terms, the figure for `COC(=O)C(CNC(=O)CC1CC(c2ccc(C(=N)N)cc2)=NO1)NS(=O)(=O)c1sccc1Br` (stereo not shown) [Example 548] is over 5.00; for `Cc1nc(C)c(S(=O)(=O)NC(CNC(=O)CC2CC(c3ccc(C(=N)N)cc3)=NO2)C(=O)O)s1` (stereo not shown) [Example 644] it is over 5.00; for `COC(=O)C(CNC(=O)CC1CC(c2ccc(C(=N)N)cc2)=NO1)NC(=O)Nc1ccc(F)cc1` (stereo not shown) [Example 518] it is over 5.00.
On the same count and under the same terms, next, `N=C(N)c1ccc(C2=NOC(CC(=O)N[C@@H](CC(=O)O)C(=O)NCCc3ccccc3)C2)cc1` (stereo partly drawn) [Example 435, (S)-N^α -[3-(4-Amidinophenyl)-isoxazolin-5-(R,S)-ylacetyl]-α-aspart-N-(2-phenylethyl)amide, trifluoroacetic acid salt]: over 5.00.
Same read-out and setting: next, `CCc1ccc(S(=O)(=O)NC(CNC(=O)CC2CC(c3ccc(C(=N)N)cc3)=NO2)C(=O)OC)cc1` (stereo not shown) [Example 488]: over 5.00; `CCCCOC(=O)N[C@@H](CNC(=O)CC1CC(c2ccc(C(=N)N)cn2)=NO1)C(=O)OC` (stereo partly shown) [Example 513, Methyl N^2-(n-butyloxycarbonyl)-N^3-[3-(3-amidinopyrid-6-yl)isoxazolin-5-ylacetyl]-S-2,3-diaminopropionate hydrochloric acid salt]: over 5.00; `COC(=O)C(CNC(=O)CC1CC(c2ccc(C(=N)N)cc2)=NO1)NS(=O)(=O)c1cc(C)c(Cl)cc1C` (stereo not shown) [Example 541]: over 5.00.
`COC(=O)C(CNC(=O)CC1CC(c2ccc(C(=N)N)cc2)=NO1)NS(=O)(=O)c1sc2ccccc2c1C` (stereo not shown) [Example 556]: the pIC50 was over 5.00.
On the same count and under the same terms, the figure for `COC(=O)C(CNC(=O)CC1CC(c2ccc(C(=N)N)cc2)=NO1)NC(=O)NCc1ccccc1` (stereo not shown) [Example 520] is over 5.00; for `CCCCOC(=O)N[C@@H](CNC(=O)CC1CC(c2ccc(C(=N)N)cc2)=NO1)C(=O)O` (stereo partly drawn) [Example 278, N^2-n-butyloxycarbonyl-N^3-[3-(4-amidinophenyl)isoxazolin-5(R, S)-ylacetyl]-L-2,3-diaminopropionic acid TFA salt] it is over 5.00; for `COC(=O)C(CNC(=O)CC1CC(c2ccc(C(=N)N)cc2)=NO1)NC(=O)OCCC1CC1` (stereo not shown) [Example 533] it is over 5.00.
On the same count and under the same terms, the figure for `CCOC(=O)CC1CCCCCN1C(=O)CC1CC(c2ccc(C(=N)N)cc2)=NO1` (stereo not shown) [Example 415] is over 5.00; for `Cc1ccc(S(=O)(=O)NC(CNC(=O)CC2CC(c3ccc(C(=N)N)cc3)=NO2)C(=O)O)cc1` (stereo not shown) [Example 300] it is over 5.00.
On the same count and under the same terms, next, `CCCCNC(=N)c1ccc(C2=NOC(CC(=O)NCC(NS(=O)(=O)c3ccccc3C)C(=O)O)C2)cc1` (stereo not shown) [Example 2114]: over 5.00.

Staying with this test, now noted: Platelet, without esterase, given as a bound, not a class symbol, read-out: Platelet Aggregation Assay IC50 (without esterase).
Regarding `O=C(O)CCN1C(=O)CC2(CC(CCC3CCNCC3)=NO2)C1=O` (racemic) [Example 189, 5(R,S)-(2-Piperidin-4-ylethyl-8-(2-carboxyethyl)-1-oxa-2,8-diazaspiro[4.4]non-2-ene-7,9-dione], the negative-log IC50 (pIC50) is under 4.00.

Still in this test, the particulars now being: Platelet, without esterase, read-out: Platelet Aggregation Assay IC50 (without esterase).
`Cc1cccc(S(=O)(=O)N[C@@H](CNC(=O)CC2CC(c3ccc(C(=N)N)cc3)=NO2)C(=O)O)c1` (stereo partly drawn) [Example 587A, N^2-3-methylphenylsulfonyl-N^3-[3-(4-amidinophenyl)isoxazolin-5S-ylacetyl]-S-2,3-diaminopropionic acid]: the pIC50 was over 5.00.
On the same count and under the same terms, next, `CCCCOC(=O)NC(CNC(=O)CC1CC(CCCC2CCNCC2)=NO1)C(=O)OC` (stereo not shown) [Example 616]: over 5.00.
Same read-out and setting: the figure for `CCCCS(=O)(=O)NC(CC1CC(c2ccc(OCC3CCNCC3)cc2)=NO1)C(=O)O` (single isomer, unassigned) [9 (isomer A)] is over 5.00.
Still for that read-out and setting: the figure for `N=C(N)c1ccc(C2=NOC(CC(=O)NCC(NC(=O)OCCCC(F)(F)F)C(=O)O)C2)cc1` (stereo not shown) [Example 538] is over 5.00.
Turning to `O=C(O)CCCN1C(=O)CC2(CC(CCC3CCNCC3)=NO2)C1=O` (stereo not shown) [Example 190], the pIC50 was 4.00 to 4.30.

Staying with this test, now noted: preincubated with 100 IU/mL porcine liver esterase 2 hours at 37° C., 100 μM ADP, read-out: Platelet Aggregation Assay IC50 (with esterase).
Regarding `COC(=O)[C@H](CNC(=O)CC1CC(c2ccc(C(=N)N)cc2)=NO1)NC(=O)Nc1ccccc1` (stereo partly shown) [Example 517], the negative logarithm of the IC50 (pIC50) was over 5.00.

The values are drawn from patent US5849736A, “Isoxazoline and isoxazole fibrinogen receptor antagonists” (The DuPont Merck Pharmaceutical Company, priority 1995, dated 1998).
